# In ChEMBL document CHEMBL3507680, “University of Dundee, Gates Library screen for HepG2 cell viability”:
# Test: Human HepG2 cell viability assay in 384 well format
# Type: toxicity, cell-based
# Parameters: dose 125 nL, time 70.5 hour; concentration not given beside the values
# Settings: HepG2 cells, read-out: Inhibition
row,Structure (SMILES),cytotoxicity at 70.5 h
1,CCSc1ccccc1C(=O)N(CCOC)Cc1ccoc1,25%
2,COCCN(Cc1ccoc1)S(=O)(=O)c1ccc(OC)c(Cl)c1,-20.8%
3,CCOC(=O)NCCC(O)c1ccoc1 (stereo not drawn),-11.9%
4,Cc1cc(C(O)CCNC(=O)COc2ccccc2F)c(C)o1 (stereo not drawn),-0.424%
5,Cc1cc(C(O)CCNS(=O)(=O)c2ccc(Cl)s2)c(C)o1 (stereo not drawn),-15.4%
6,COC1(CNC(=O)c2ccoc2)CCSC1 (stereo not drawn),-11%
7,COc1ccc(OC)c(S(=O)(=O)NCC2(OC)CCSC2)c1 (stereo not drawn),-7.48%
8,COC1(CNS(=O)(=O)c2ccccc2Br)CCSC1 (stereo not drawn),-4.04%
9,COc1ccc(C(=O)Nc2ccccc2-c2ccc(=O)n(C)n2)cc1,3.05%
10,Cn1nc(-c2ccccc2NC(=O)c2cncc(Br)c2)ccc1=O,15.4%
11,O=C(NCC(F)(F)F)c1ccc(-n2cncn2)nn1,1.36%
12,Cc1ccc(C(=O)NCCn2nc(-n3cncn3)ccc2=O)c(C)c1,29.8%
13,CS(=O)(=O)C1CCN(S(=O)(=O)c2ccc(F)c(F)c2)C1 (stereo not drawn),-5.07%
14,CS(=O)(=O)C1CCN(S(=O)(=O)Cc2cccc(F)c2)CC1,0.12%
15,CS(=O)(=O)C1CCN(S(=O)(=O)c2ccc(F)c(F)c2)CC1,1.4%
16,O=C(CN1C(=O)CCC1=O)N1Cc2cncnc2C1,-2.85%
17,CS(=O)(=O)N1CCCC1CS(=O)(=O)c1ccccc1 (stereo not drawn),-11.6%
18,O=S(=O)(CC1CCCN1S(=O)(=O)C1CC1)c1ccccc1 (stereo not drawn),-6.46%
19,Cc1cc(CNC(=O)c2cnoc2C)c(C)o1,-12%
20,Cn1cnc(S(=O)(=O)NCC(O)c2ccc3c(c2)CCO3)c1 (stereo not drawn),-16.8%
21,Cn1cnc(S(=O)(=O)NCCC(O)c2ccc3c(c2)OCO3)c1 (stereo not drawn),20.5%
22,CN(C)C(=O)Cc1ccc(NC(=O)c2cn(C)nn2)cc1,-4.9%
23,Cc1nsc(C(=O)NCCc2ccc(S(N)(=O)=O)cc2)n1,-5.58%
24,Cc1nsc(C(=O)NCCCc2ccccc2)n1,-5.43%

row,Structure (SMILES),cytotoxicity at 70.5 h
1,Cc1nsc(C(=O)NCCc2ccc(Cl)cc2)n1,2.81%
2,Cc1nsc(C(=O)NCCc2ccc(F)cc2)n1,-1.44%
3,Cc1nsc(C(=O)NCCc2cccs2)n1,-5.79%
4,Cc1nc(N(C)C)nc(C)c1NC(=O)c1ccccc1F,-7.08%
5,Cc1cc(C)c(S(=O)(=O)Nc2c(C)nc(N(C)C)nc2C)cc1C,7.13%
6,Cc1nc(N(C)C)nc(C)c1NS(=O)(=O)c1ccc(F)cc1F,-2.45%
7,Cc1ccc(S(=O)(=O)Nc2c(C)nc(N3CCCC3)nc2C)cc1,-2.23%
8,Cc1nc(N2CCOCC2)nc(C)c1NS(=O)(=O)c1ccccc1,-4.03%
9,CCS(=O)(=O)NCc1nc(C)cc(N2CCCC2)n1,19.2%
10,CCCS(=O)(=O)NCc1nc(C)cc(N2CCCC2)n1,-5.66%
11,CCS(=O)(=O)NCc1nc(C)cc(N2CCOCC2)n1,-6.72%
12,O=C(Cc1ccc(F)cc1)NCCNc1cc(N2CCCC2)cnn1,30.6%
13,CCC(=O)N1CCN(c2cc(N(C)C)cnn2)CC1,-10.5%
14,CC(C)C(=O)N1CCN(c2cc(N(C)C)cnn2)CC1,-5.3%
15,O=C(c1ccccn1)N1CCN(c2cnnc(N3CCCC3)c2)CC1,-10.9%
16,CCOc1ccc(S(=O)(=O)Nc2cnc(OC)nc2OC)cc1,9.83%
17,COc1ncc(NS(=O)(=O)c2ccc(F)c(F)c2)c(OC)n1,-1.82%
18,CC(C)(C)CC(=O)NCCn1ccc(-c2ccncc2)n1,-15.2%
19,CC(=O)NCCn1ccc(-c2ccccn2)n1,-2.73%
20,O=C(NCCn1ccc(-c2ccccn2)n1)C1CCC1,1.58%
21,O=S(=O)(NCCn1ccc(-c2ccccn2)n1)C1CCCCC1,23.9%
22,Cn1nc(CNC(=O)c2ccc3c(c2)OCO3)c2c1CCOC2,5.45%
23,Cn1nc(CNC(=O)c2ccc3nsnc3c2)c2c1CCOC2,-4.6%
24,COc1cc(OC)cc(C(=O)NCc2nn(C)c3c2COCC3)c1,0.999%
